Data from patent publication EP4129319A1, “PORE-FORMING ANTIMICROBIAL PEPTIDES” (priority 2021, dated 2023).
Read-outs that look alike come from different tables or passages of the source. Ends that are not written are not given here.

How the values were obtained:
[1] = test system: human red blood cells (HRBCs); assay type: cell-based
Description: (§1) Chemicals. […] (Prague, Czech Republic), and Caslo ApS (Kongens Lyngby, Denmark). […] The bacterial stock was stored at -80°C.
Hemolysis assay. Hemolytic toxicity of the peptides was evaluated from their ability to lyse the fresh human red blood cells (HRBCs) collected from the University Hospital (Brno, Czech Republic). To obtain the erythrocyte pellets, the blood samples were centrifuged twice at 700×g and subsequently, once at 1000×g, each for 8 min. at 4 °C, which was followed by thorough washing with PBS. Resuspension of the pellets was done in PBS to obtain 0.5% (vol/vol) RBC suspension. In a well plate with 96 V-shaped bottom wells, the peptides were added in a dilution series from 0.1 to 50 µM concentration. Subsequently, HRBC suspension was added in each well. Negative control wells contained only PBS and HRBC suspension without any peptide (i.e., 0% lysis), and positive control wells included 5 µM melittin in the HRBC suspension. After incubation for 1 h at 37 °C, the well plates were centrifuged at 1000×g for 10 min. at 4 °C. Subsequently, the supernatant was collected in a flat-bottomed well plate and the optical density of the released hemoglobin was measured for each well at 415 nm wavelength. The calculated absorbances from the wells were then normalized against the averaged absorbances of the positive and the negative control wells. EC50 value was calculated from the normalized absorbances indicating 50% hemolysis of HRBCs. Experiments were performed in triplicates with three independent blood samples.

[2] = test system: Gram-negative Escherichia coli TOP10 strain; assay type: cell-based; details: for Antibacterial activity (MIC in µM) E. coli TOP10: broth microdilution assay; for MIC against E. coli: 24 h at 37 °C, dilution series 50 to 0.1 µM
Description: as §1
(§2) Broth microdilution assay. Antimicrobial activity of the peptides was investigated against Gram-negative Escherichia coli TOP10 strain and Gram-positive Staphylococcus carnosus CCM 4838T using broth microdilution assay, based on which the inventors determined the bacterial minimum inhibition concentration (MIC). After cross streaking with bacteria, the petri dishes (with MHA) were incubated for 24 h at 37 °C. Overnight grown cultures were then sub-cultured for 4-6 h at 37 °C in test tubes containing MHB. The sub-cultured solutions were subsequently diluted to a standard concentration of 10^6 colony forming units (CFU) per mL. Cell counts were determined by measuring the optical density at 600 nm. In a flat-bottomed 96 well plate, the inventors prepared a dilution series for the peptides and for the reference antibiotic ampicillin from 50 to 0.1 µM concentration, which was then inoculated with bacteria and incubated for 24 h at 37 °C. Growth control wells were free from peptides or ampicillin to show the viability of the bacteria, and sterility control wells were free from bacterial inoculation to verify the sterility of the medium. The bacterial growth was visually evaluated based on the turbidity. MIC was determined as the lowest concentrated well where no visible bacterial growth was observed. To test the bacteriostatic or bacteriocidal activity of the peptides, 50 µl solution from the highest concentrated well (i.e., 50 µM) was transferred to a test tube containing 4 mL sterile MHB and incubated for 24 h at 37 °C under constant stirring. Streaking of the same solution was done on MHA containing petri dishes and incubated for 24 h at 37 °C to confirm the morphology of the colonies grown. Experiments were performed in triplicates.

[3] = test system: Gram-positive Staphylococcus carnosus CCM 4838T; assay type: cell-based; details: for Antibacterial activity (MIC in µM) S. carnosus: CCM 4838
Description: as §1, §2

Calcein leakage assay = assay type: biochemical; details: for Extent of leakage (in percentage) at increasing peptide-to-lipid ratio (mol/mol) 1:10 / Extent of leakage (in percentage) at increasing peptide-to-lipid ratio (mol/mol) 1:20 / Extent of leakage (in percentage) at increasing peptide-to-lipid ratio (mol/mol) 1:50 / Extent of leakage (in percentage) at increasing peptide-to-lipid ratio (mol/mol) 1:100: calcein leakage, POPC:POPG (1:1 mol/mol) LUVs; for Extent of leakage (in percentage) at increasing peptide-to-lipid ratio (mol/mol) 1:10: peptide-to-lipid ratio 1:10 (mol/mol); for Extent of leakage (in percentage) at increasing peptide-to-lipid ratio (mol/mol) 1:20: peptide-to-lipid ratio 1:20 (mol/mol); for Extent of leakage (in percentage) at increasing peptide-to-lipid ratio (mol/mol) 1:50: peptide-to-lipid ratio 1:50 (mol/mol); for Extent of leakage (in percentage) at increasing peptide-to-lipid ratio (mol/mol) 1:100: peptide-to-lipid ratio 1:100 (mol/mol)
Description: as §1
Calcein leakage assay. Pore-forming activity of the peptides was tested by their ability to leak the self-quenching fluorescent dye calcein entrapped within POPC:POPG (1:1 mol/mol) large unilamellar vesicles (LUVs). After mixing DiD to the lipid mixture (in the ratio 1:500 mol/mol), a thin lipid film was created by evaporating of the chloroform, traces of which were removed by desiccating overnight. The lipid film was then dissolved in calcein buffer, followed by vigorous vortexing. The lipid suspension was subsequently subjected to 10 freeze-thaw cycles. To obtain uniform LUVs, the sample was passed 50 times back and forth through an extruder stacked with 100 nm pore size polycarbonate membrane filter. Afterwards, the untrapped calcein was removed on a HiTrap Desalting Column (with Sephadex G-25 Superfine resin) by washing with PBS buffer. The concentration of the lipid suspension was then adjusted to 0.02 mM. The concentration of the peptide solution was 0.1 mM. The inventors monitored the peptide-induced release of calcein from LUVs by the increase in fluorescence intensity after adding increasing amounts of peptides to the LUVs under constant stirring at 25 °C. The investigated range of peptide/lipid molecular ratio was from 1:100 to 1:10. The excitation and emission wavelengths were set to 495 nm and 520 nm, respectively. Maximum fluorescence intensity was obtained by disrupting all the vesicles in the end by adding 10% Triton X-100. Experiments were performed in triplicates with independently prepared lipid vesicles.

[4] = hemolysis assay, HRBCs, read-out: Toxicity (EC50 in µM) HRBCs

Substance	Antibacterial activity (MIC in µM) E. coli TOP10 [2] [µM]	Antibacterial activity (MIC in µM) S. carnosus [3] [µM]	Extent of leakage (in percentage) at increasing peptide-to-lipid ratio (mol/mol) 1:10 (Calcein leakage assay)	Extent of leakage (in percentage) at increasing peptide-to-lipid ratio (mol/mol) 1:20 (Calcein leakage assay)	Extent of leakage (in percentage) at increasing peptide-to-lipid ratio (mol/mol) 1:50 (Calcein leakage assay)	Extent of leakage (in percentage) at increasing peptide-to-lipid ratio (mol/mol) 1:100 (Calcein leakage assay)	further results
KKKKLKKILKKLFQFINQLDNQLQDFKQNK [KDFA2i+8(I26F)]	0.4	0.8					EC50 [1, 4]: > 50 µM
NQRRLRRILRRLFQFIDQLDNDLQDIRRQN [RDFC16]			Aggregated peptides and no leakage	Aggregated peptides and no leakage	Aggregated peptides and no leakage	Aggregated peptides and no leakage	
NQRRLQNILRRLFQFIDQLINDLQNIRRQN [RDFA5]			Aggregated peptides and no leakage	Aggregated peptides and no leakage	Aggregated peptides and no leakage	Aggregated peptides and no leakage	
NQRRLRRILRRLWQWINQLIDDLDDIRRQN [RDWC21]			Aggregated peptides and no leakage	Aggregated peptides and no leakage	Aggregated peptides and no leakage	Aggregated peptides and no leakage	
KKKKLKKILKKLFQFINQLDNQLQDIKQNK [KDFA2i+8]	0.2	0.4					EC50 [1, 4]: > 50 µM
H-HHHHLKKILKKLFQFINQLDNQLQDIHHHH-OH [KDFA2i+2-Hter]		> 50				102.5 ± 1.2 percentage	extent of calcein leakage at peptide-to-lipid (P:L) ratio 1:100 (Calcein leakage assay; POPC:POPG (1:1) LUVs): 100%; antimicrobial activity against E. coli (in words) [2]: did not show antibacterial activity; antimicrobial activity against S. carnosus (in words) [3]: did not show antibacterial activity
NQRRLRRILNQLFQFINQLDNQLQDIRRQN [RDFA2]	> 50			102.9 ± 0.9 percentage	97.4 ± 4.5 percentage	80.2 ± 8.2 percentage	EC50 [1]: > 50 µM
NQRRLRRILNQLWQWINQLDNQLQDIRRQN [RDWA2]			Aggregated peptides and no leakage	Aggregated peptides and no leakage	Aggregated peptides and no leakage	Aggregated peptides and no leakage	
NQRRLRRILNQLFQFINQLDNQLQDIRQNR [RDFA2i]			Aggregated peptides and no leakage	Aggregated peptides and no leakage	Aggregated peptides and no leakage	Aggregated peptides and no leakage	
NQRRLRRILRRLFQFINQLIDDLDDIRRQN [RDFC21]			Aggregated peptides and no leakage	Aggregated peptides and no leakage	Aggregated peptides and no leakage	Aggregated peptides and no leakage	
NQKKLRRILRRLFQFIDQLDNDLQDIKKQN [RDFC16Kter]	50			102.2 ± 0.5 percentage	85.3 ± 4.3 percentage	64.5 ± 6.1 percentage	EC50 [1]: > 50 µM; MIC against E. coli [2]: 50 µM
H-KKKKVKKILKKLIQLIDQLDKDLQDIKKKK-NH2 [KD16+9-NH2]			99.1 ± 2.5 percentage	93.1 ± 0.7 percentage	83.0 ± 1.5 percentage	58.8 ± 4.8 percentage	calcein / vesicle leakage, pore-forming ability (in words) (Calcein leakage assay; POPC:POPG (1:1) LUVs): resulted in vesicle leakage; EC50 [1]: > 50 µM
KKKKLKKILKKLWQWINQLDNQLQDIKQNK-NH2 [KDWA2i+9-NH2]	0.4	0.8					EC50 [1, 4]: > 50 µM
NQKKLKKILNQLFQFINQLDNQLQDIKKQN [KDFA2]	50				100.2 ± 0.2 percentage	82.8 ± 1.5 percentage	EC50 [1]: > 50 µM; MIC against E. coli [2]: 50 µM
NQRRLQNILRRLFQFINQLIDDLQNIRRQN [RDFA7]			Aggregated peptides and no leakage	Aggregated peptides and no leakage	Aggregated peptides and no leakage	Aggregated peptides and no leakage	
KKKKLKKILKKLFQFINQLENQLQEIKQNK-NH2 [KEFA2i+9-NH2]	0.8	0.8					EC50 [1, 4]: > 50 µM
KKKKKLKKILKKLFQFINQLDNQLQDIKKKKK [KDFA2i+12]	0.4	0.4					EC50 [1, 4]: > 50 µM
